Assays:
GP2D cells = experiment: Ras cellular assay, cell proliferation GP2D; format: cell-based
Protocol: (§1) For example, this assay can be also used to assess selective growth inhibition of a mutant Ras protein relative to a wildtype, or relative to a different mutant Ras protein.
ASPC-1 (ATCC CRL-1682), Panc-10.05 (ATCC CRL-2547), A427, GP2d cell lines or any other cell lines comprising a G12D mutation can be used to assess Ras cellular signaling in vitro, e.g., in response to a compound described herein. For example, ASPC-1 culture medium is prepared with RPMI-1640 and 10% heat-inactivated FBS. Panc-10.05 culture medium is prepared with RPMI-1640, 10 Units/mL human recombinant insulin, and 10% FBS. A427 cell culture is prepared with RPMI-1640 and 10% heat-inactivated FBS. A CellTiter-Glo (CTG) luminescent based assay (Promega) is used to assess growth of the cells, as a measurement of the ability of the compounds herein to inhibit Ras signaling in the cells. The cells (e.g., 800 per well) are seeded in their respective culture medium in standard tissue culture-treated 384-well format plates (Falcon #08-772-116) or ultra-low attachment surface 384-well format plates (S-Bio #MS-9384UZ). The day after plating, cells are treated with a dilution series (e.g., a 9 point 3-fold dilution series) of the compounds herein (e.g., approximately 40 μL final volume per well). Cell viability can be monitored (e.g., approximately 5 days later) according to the manufacturer's recommended instructions, where the CellTiter-Glo reagent is added (e.g., approximately 10 μL), vigorously mixed, covered, and placed on a plate shaker (e.g., approximately for 20 min) to ensure sufficient cell lysis prior to assessment of luminescent signal. The IC50 values are determined using the four parameter fit. The resulting IC50 value is a measurement of the ability of the test compound to reduce cell growth of Ras-driven cells (e.g., tumor cell lines) in vitro and/or in vivo.

SW620 cells = experiment: Ras cellular assay, cell proliferation SW620; format: cell-based; conditions: Homo sapiens, SW-620
From the text: as §1

K-Ras G12D = molecular target: T1, K-Ras G12D (Homo sapiens, UniProt P01116, G12D); experiment: PPI-HTRF assay, K-Ras G12D / SOS1 interaction; format: biochemical; conditions: HTRF, K-Ras G12D; read-out: PPI-HTRF-5 nM (K-Ras G12D IC50)
T1 construct: made in house; host or cells: E. coli, e.g. BL21 (DE3)
From the text: (§2) This assay can be also used to assess a selective inhibition or reduction of signaling output of a mutant Ras protein relative to a wildtype, or relative to a different mutant Ras protein. For example, the equilibrium interaction of wildtype Kras or K-Ras mutant (e.g., wildtype or a mutant thereof) with SOS1 (e.g., hSOS1) can be assessed as a proxy or an indication for a subject compound's ability to bind and inhibit Ras protein. HTRF assay detects from (i) a fluorescence resonance energy transfer (FRET) donor (e.g., antiGST-Europium) that is bound to GST-tagged K-Ras mutant to (ii) a FRET acceptor (e.g., anti-6His-XL665) bound to a His-tagged hSOS1.
(§3) The assay buffer can contain ˜5 mM HEPES pH 7.4, ˜150 mM NaCl, ˜1 mM DTT, 0.05% BSA and 0.0025% (v/v) Igepal. A Ras working solution is prepared in an assay buffer containing typically a suitable amount of the protein construct (e.g., GST-tagged K-Ras mutant) and the FRET donor (e.g., antiGST-Eu(K) from Cisbio, France). A SOS1 working solution is prepared in an assay buffer containing suitable amount of the protein construct (e.g., His-hSOS1) and the FRET acceptor (e.g., anti-6His-XL665 from Cisbio, France). A suitable amount of the protein construct will depend on the range of activity or range of IC50 values being detected or under investigation. For detecting IC50 within a range of 500 nM, the protein constructs of the same range of molarity can be utilized.
(§4) A fixed volume of DMSO with or without test compound is transferred into a 384-well plate. Ras working solution is added to all wells of the test plate. SOS1 working solution is added to all wells except for those that are subsequently filled the inhibitor control solution. Upon incubation for about 10 minutes or longer, the fluorescence is measured with a M1000Pro plate reader (Tecan) using HTRF detection (excitation 337 nm, emission 1: 620 nm, emission 2: 665 nm). Compounds are tested in duplicate at different concentrations (for example, 10 μM, 2.5 μM, 0.63 μM, 0.16 μM, 0.04 μM, 0.01 μM test compound). The ratiometric data (i.e., emission 2 divided by emission 1) is used to calculate IC50 values against Ras using GraphPad Prism (GraphPad software). Following this general procedure, samples are tested with or without a subject compound disclosed herein including compounds exemplified in Table 1 to assess their abilities to inhibit a mutant K-Ras relative to another K-Ras (e.g., different mutant or wildtype). Signaling output measured in terms of IC50 values can be obtained, a ratio of IC50 against one mutant relative to another mutant can be calculated. For instance, a selective reduction of K-Ras G12D signaling output can be evidenced by a ratio greater than one. In particular, a selective reduction of K-Ras G12D signaling relative to K-Ras WT signaling is evidenced if the ratio of IC50 (against K-Ras WT) to IC50 (against K-Ras G12D) is greater than 1.

K-Ras G12S = molecular target: T2, K-Ras G12S (Homo sapiens, UniProt P01116, G12S); experiment: PPI-HTRF assay, K-Ras G12S / SOS1 interaction; format: biochemical; conditions: read-out: PPI-HTRF-5 nM (K-Ras G12S IC50)
T2 construct: made in house; host or cells: E. coli, e.g. BL21 (DE3)
From the text: as §2, §3, §4

wildtype K-Ras = molecular target: T3, wildtype K-Ras (Homo sapiens, UniProt P01116); experiment: PPI-HTRF assay, wildtype K-Ras / SOS1 interaction; format: biochemical; conditions: HTRF, K-Ras wt; read-out: PPI-HTRF-5 nM (K-Ras wt IC50)
T3 construct: made in house; host or cells: E. coli, e.g. BL21 (DE3)
From the text: as §2, §3, §4

K-Ras G12V = molecular target: T4, K-Ras G12V (Homo sapiens, UniProt P01116, G12V); experiment: PPI-HTRF assay, K-Ras G12V / SOS1 interaction; format: biochemical; conditions: HTRF, K-Ras G12V; read-out: PPI-HTRF-5 nM (K-Ras G12V IC50)
T4 construct: made in house; host or cells: E. coli, e.g. BL21 (DE3)
From the text: as §2, §3, §4

T4 sequence (P01116 1-188 isoform P01116-2 G12V): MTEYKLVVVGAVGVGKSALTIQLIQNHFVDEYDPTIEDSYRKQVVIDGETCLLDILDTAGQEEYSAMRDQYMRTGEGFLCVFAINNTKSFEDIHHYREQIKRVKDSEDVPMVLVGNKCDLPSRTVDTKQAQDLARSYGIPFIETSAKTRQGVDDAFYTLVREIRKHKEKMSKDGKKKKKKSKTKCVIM
T3 sequence (P01116 1-188 isoform P01116-2): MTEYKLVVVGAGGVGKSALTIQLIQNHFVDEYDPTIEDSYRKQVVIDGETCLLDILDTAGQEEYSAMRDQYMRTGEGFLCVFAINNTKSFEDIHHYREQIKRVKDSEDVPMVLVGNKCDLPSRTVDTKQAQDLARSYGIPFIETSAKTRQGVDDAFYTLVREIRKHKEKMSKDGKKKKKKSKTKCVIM
T2 sequence (P01116 1-188 isoform P01116-2 G12S): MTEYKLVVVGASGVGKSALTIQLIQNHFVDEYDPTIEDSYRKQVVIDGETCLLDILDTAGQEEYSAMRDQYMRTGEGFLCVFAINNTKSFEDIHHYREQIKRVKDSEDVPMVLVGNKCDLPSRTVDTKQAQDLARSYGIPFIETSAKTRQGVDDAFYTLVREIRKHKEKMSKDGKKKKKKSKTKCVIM
T1 sequence (P01116 1-188 isoform P01116-2 G12D): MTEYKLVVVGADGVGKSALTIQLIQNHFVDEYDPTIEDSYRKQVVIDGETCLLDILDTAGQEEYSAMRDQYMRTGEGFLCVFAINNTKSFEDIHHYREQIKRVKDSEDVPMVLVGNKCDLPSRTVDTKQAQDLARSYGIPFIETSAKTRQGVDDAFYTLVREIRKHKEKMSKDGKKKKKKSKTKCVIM

SMILES | IC50 (GP2D cells) [µM] | IC50 (SW620 cells) [µM] | IC50 (K-Ras G12D) [µM] | IC50 (K-Ras G12S) [µM] | IC50 (wildtype K-Ras) [µM] | IC50 (K-Ras G12V) [µM]
N#Cc1c(N)sc2c(F)ccc(-c3c(Cl)c4c5c(nc(OC[C@@]67CCCN6C[C@H](F)C7)nc5c3F)NC3COCC3CO4)c12 (stereo partly drawn) [compound 208, 2-amino-4-(6-chloro-4-fluoro-2-(((2R,7aS)-2-fluorotetrahydro-1H-pyrrolizin-7a(5H)-yl)methoxy)-8a,9,11a,12-tetrahydro-8H,11H-furo[3′,4′:6,7][1,5]oxazocino[4,3,2-de]quinazolin-5-yl)-7-fluorobenzo[b]thiophene-3-carbonitrile] | < 5 | < 5 | < 5 | < 5 | < 5 | < 5
N#Cc1c(N)sc2c(F)ccc(-c3c(Cl)c4c5c(nc(OC[C@@]67CCCN6C[C@H](F)C7)nc5c3F)N3CC(N)CCC3CCO4)c12 (stereo partly drawn) [compound 129, 2-amino-4-(9-amino-3-chloro-1-fluoro-13-(((2R,7aS)-2-fluorotetrahydro-1H-pyrrolizin-7a(5H)-yl)methoxy)-6,6a,7,8,9,10-hexahydro-5H-pyrido[1′,2′:5,6][1,5]oxazocino[4,3,2-de]quinazolin-2-yl)-7-fluorobenzo[b]thiophene-3-carbonitrile] | < 5 | > 5 | < 5 | < 5 | < 5 | < 5
CC(CN(C)C)N1c2nc(OC[C@@]34CCCN3C[C@H](F)C4)nc3c(F)c(-c4ccc(F)c5sc(N)c(C#N)c45)c(Cl)c(c23)OCC2COCC21 (stereo partly drawn) [compound 102, 2-amino-4-(6-chloro-12-(1-(dimethylamino)propan-2-yl)-4-fluoro-2-(((2R,7aS)-2-fluorotetrahydro-1H-pyrrolizin-7a(5H)-yl)methoxy)-8a,9,11a,12-tetrahydro-8H,11H-furo[3′,4′:6,7][1,5]oxazocino[4,3,2-de]quinazolin-5-yl)-7-fluorobenzo[b]thiophene-3-carbonitrile] | < 5 | > 5 | < 5 | < 5 | < 5 | < 5
CC1Oc2c(Cl)c(-c3ccc(F)c4sc(N)c(C#N)c34)c(F)c3nc(OC[C@@]45CCCN4C[C@H](F)C5)nc(c23)N(C)C2COCC12 (stereo partly drawn) [compound 104] | < 5 | < 5 | < 5 | < 5 | < 5 | < 5
CNC1CCN2c3nc(OC[C@@]45CCCN4C[C@H](F)C5)nc4c(F)c(-c5ccc(F)c6sc(N)c(C#N)c56)c(Cl)c(c34)OCCC2C1 (stereo partly drawn) [compound 158, 2-amino-4-(3-chloro-1-fluoro-13-(((2R,7aS)-2-fluorotetrahydro-1H-pyrrolizin-7a(5H)-yl)methoxy)-8-(methylamino)-6,6a,7,8,9,10-hexahydro-5H-pyrido[11,2′:5,6][1,5]oxazocino[4,3,2-de]quinazolin-2-yl)-7-fluorobenzo[b]thiophene-3-carbonitrile] | > 5 | < 5 | < 5 | < 5 | < 5 | < 5
N#Cc1c(N)sc2c(F)ccc(-c3c(Cl)c4c5c(nc(OC[C@@]67CCCN6C[C@H](F)C7)nc5c3F)N(CC(F)F)CC3COCC3O4)c12 (stereo partly drawn) [compound 112, 2-amino-4-(1-chloro-7-(2,2-difluoroethyl)-3-fluoro-5-(((2R,7aS)-2-fluorotetrahydro-1H-pyrrolizin-7a(5H)-yl)methoxy)-7,8,8a,9,11,11a-hexahydrofuro[3′,4′:7,8][1,5]oxazocino [4,3,2-de]quinazolin-2-yl)-7-fluorobenzo[b]thiophene-3-carbonitrile] | > 5 | < 5 | < 5 | < 5 | < 5 | < 5
CN(C)CCN1c2nc(OC[C@@]34CCCN3C[C@H](F)C4)nc3c(F)c(-c4ccc(F)c5sc(N)c(C#N)c45)c(Cl)c(c23)OCC2COCC21 (stereo partly drawn) [compound 106, 2-amino-4-(6-chloro-12-(2-(dimethylamino)ethyl)-4-fluoro-2-(((2R,7aS)-2-fluorotetrahydro-1H-pyrrolizin-7a(5H)-yl)methoxy)-8a,9,11a,12-tetrahydro-8H,11H-furo[3′,4′:6,7][1,5]oxazocino[4,3,2-de]quinazolin-5-yl)-7-fluorobenzo[b]thiophene-3-carbonitrile] | < 5 | < 5 | < 5 | < 5 | < 5 | < 5
CNCC(C)N1c2nc(OC[C@@]34CCCN3C[C@H](F)C4)nc3c(F)c(-c4ccc(F)c5sc(N)c(C#N)c45)c(Cl)c(c23)OCC2COCC21 (stereo partly drawn) [compound 109, 2-amino-4-(6-chloro-4-fluoro-2-(((2R,7aS)-2-fluorotetrahydro-1H-pyrrolizin-7a(5H)-yl)methoxy)-12-(1-(methylamino)propan-2-yl)-8a,9,11a,12-tetrahydro-8H,11H-furo[3′,4′:6,7][1,5]oxazocino[4,3,2-de]quinazolin-5-yl)-7-fluorobenzo[b]thiophene-3-carbonitrile] | > 5 | > 5 | < 5 | < 5 | < 5 | < 5
CN1CC2COCC2Oc2c(Cl)c(-c3ccc(F)c4sc(N)c(C#N)c34)c(F)c3nc(OC[C@@]45CCCN4C[C@H](F)C5)nc1c23 (stereo partly drawn) [compound 113, 2-amino-4-(1-chloro-3-fluoro-5-(((2R,7aS)-2-fluorotetrahydro-1H-pyrrolizin-7a(5H)-yl)methoxy)-7-methyl-7,8,8a,9,11,11a-hexahydrofuro[3′,4′:7,8][1,5]oxazocino[4,3,2-de]quinazolin-2-yl)-7-fluorobenzo[b]thiophene-3-carbonitrile] | < 5 | < 5 | < 5 | < 5 | < 5 | < 5
